According to patent US5741790A, “Azetidines” (Pfizer Inc., priority 1996, dated 1998):

Legend:
human NK2 receptor = molecular target: T1, human NK2 receptor (Homo sapiens, UniProt P21452); assay: NK2 receptor binding: competition with [3H] or [125I]NKA for binding to CHO cell membranes expressing cloned human NK2 receptor; conditions: membranes of Chinese hamster ovary cells expressing cloned human NK2 receptor, 90 min, 25° C., read-out: plC50, NK2 receptor binding activity (converted)
T1 construct: expressed in transfected cells; host or cells: Chinese hamster ovary (CHO) cells, membranes
T1 sequence (P21452 1-398): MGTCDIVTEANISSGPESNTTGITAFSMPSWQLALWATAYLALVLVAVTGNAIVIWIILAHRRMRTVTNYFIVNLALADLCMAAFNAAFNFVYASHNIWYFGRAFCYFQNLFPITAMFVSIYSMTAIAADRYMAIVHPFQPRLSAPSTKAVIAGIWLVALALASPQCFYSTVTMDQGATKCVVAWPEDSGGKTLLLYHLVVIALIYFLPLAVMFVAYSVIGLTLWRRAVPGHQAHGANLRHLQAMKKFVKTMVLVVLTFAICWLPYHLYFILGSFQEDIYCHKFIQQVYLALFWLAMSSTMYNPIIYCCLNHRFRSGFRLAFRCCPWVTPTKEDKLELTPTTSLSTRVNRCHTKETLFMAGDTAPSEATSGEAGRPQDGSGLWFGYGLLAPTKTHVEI
Description: The affinity of the compounds of formula (I) and their salts for the human NK2 receptor can be tested in vitro by testing their ability to compete with [^3 H] or […] (neurokinin A) for binding to membranes prepared from Chinese hamster ovary cells expressing the cloned human NK2 receptor. In this method, washed Chinese hamster ovary cell membranes are prepared as described for the previous method where IM9 cells are used instead. The membranes are incubated (90 min, 25° C.) with [^3 H] or [^125 I] NKA and with a range of concentrations of the test compound. Non-specific binding was determined in the presence of 10μM NKA.

NK2 receptor = molecular target: T2, NK2 receptor (Oryctolagus cuniculus, UniProt P79218); assay: NK2 receptor antagonist activity in vitro: antagonism of contractile effects of [βAla8]NKA(4-10) in rabbit pulmonary artery (Patacchini and Maggi); format: biochemical; conditions: agonist [βAla8]NKA(4-10), read-out: pA2, NK2 receptor antagonist activity (converted)
T2 construct: in the rabbit pulmonary artery; from tissue; host or cells: rabbit pulmonary artery
T2 sequence (P79218 1-384): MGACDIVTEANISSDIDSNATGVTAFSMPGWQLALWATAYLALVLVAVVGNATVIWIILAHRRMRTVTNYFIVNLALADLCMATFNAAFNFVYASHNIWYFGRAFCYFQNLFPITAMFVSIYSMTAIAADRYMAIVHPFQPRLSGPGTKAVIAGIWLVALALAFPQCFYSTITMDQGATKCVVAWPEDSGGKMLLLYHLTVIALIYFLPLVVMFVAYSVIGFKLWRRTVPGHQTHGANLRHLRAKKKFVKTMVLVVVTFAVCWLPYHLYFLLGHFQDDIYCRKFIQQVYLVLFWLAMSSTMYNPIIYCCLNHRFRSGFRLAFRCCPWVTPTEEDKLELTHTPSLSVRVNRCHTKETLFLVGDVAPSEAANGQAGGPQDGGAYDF
From the text: The NK2 receptor antagonist activity of the compounds of the formula (I) can be tested, in vitro, by testing their ability to antagonise the contractile effects of the selective NK2 receptor agonist [βAla^8 ]NKA(4-10) in the rabbit pulmonary artery, using the method of Patacchini and Maggi, Eur. J. Pharmacol., 236, 31-37 (1993).

Structure (SMILES): NS(=O)(=O)N1CCN(C2CN(CC[C@]3(c4ccc(Cl)c(Cl)c4)CCC(=O)N(CC4CCCCC4)C3=O)C2)CC1 [Example 3, 3(S)-3-(2-(3-(4-Aminosulphonylpiperazin-1-yl)azetidin-1-yl)ethyl)-1-cyclohexylmethyl-3-(3,4-dichlorophenyl)glutarimide]
- IC50 (human NK2 receptor): 0.501 nM
- Kb (NK2 receptor): 7.94 nM
